From ChEMBL document CHEMBL1909046, “DrugMatrix in vitro pharmacology data”

Assays:
Cytochrome P450 2C19 = Cytochrome P450 2C19 (Homo sapiens, UniProt P33261); conditions: bti-tn-5b1-4; also: in other assays of this panel Not Active means under 50% inhibition at 10 µM
[1] = target: T1, Vasoactive intestinal polypeptide receptor 1 (Homo sapiens, UniProt P32241); format: cell membranes, Membrane; conditions: ht-29; also: in other assays of this panel Not Active means under 50% inhibition at 10 µM
T1 sequence (P32241 whole entry): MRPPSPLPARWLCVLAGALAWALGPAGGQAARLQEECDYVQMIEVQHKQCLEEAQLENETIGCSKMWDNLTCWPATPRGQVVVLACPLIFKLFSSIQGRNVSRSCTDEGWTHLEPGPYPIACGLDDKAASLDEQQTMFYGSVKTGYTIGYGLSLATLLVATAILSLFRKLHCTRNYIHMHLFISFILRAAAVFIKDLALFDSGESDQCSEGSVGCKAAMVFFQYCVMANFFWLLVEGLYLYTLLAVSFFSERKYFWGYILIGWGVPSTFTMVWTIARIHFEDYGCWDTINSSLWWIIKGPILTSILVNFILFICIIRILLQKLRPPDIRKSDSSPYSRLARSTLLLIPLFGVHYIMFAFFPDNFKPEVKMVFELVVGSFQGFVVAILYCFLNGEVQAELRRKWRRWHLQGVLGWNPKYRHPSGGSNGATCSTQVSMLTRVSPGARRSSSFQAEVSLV

Endothelin-1 receptor = target: T2, Endothelin-1 receptor (Homo sapiens, UniProt P25101); format: cell membranes, CHO-K1, Membrane; conditions: cho-k1; also: in other assays of this panel Not Active means under 50% inhibition at 10 µM
T2 sequence (P25101 whole entry): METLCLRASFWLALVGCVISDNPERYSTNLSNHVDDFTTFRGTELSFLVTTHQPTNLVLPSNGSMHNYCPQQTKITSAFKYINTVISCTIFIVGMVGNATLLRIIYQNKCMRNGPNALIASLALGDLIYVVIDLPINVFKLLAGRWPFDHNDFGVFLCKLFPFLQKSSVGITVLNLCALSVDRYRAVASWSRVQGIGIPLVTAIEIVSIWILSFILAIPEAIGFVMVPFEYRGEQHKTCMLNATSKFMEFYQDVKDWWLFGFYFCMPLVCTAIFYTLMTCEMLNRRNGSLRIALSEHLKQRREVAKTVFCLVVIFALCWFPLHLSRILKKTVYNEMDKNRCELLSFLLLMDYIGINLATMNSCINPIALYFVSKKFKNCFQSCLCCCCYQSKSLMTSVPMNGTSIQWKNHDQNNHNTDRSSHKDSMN

[2] = DRUGMATRIX: Purinergic P2X radioligand binding (ligand: [3H] alpha, beta-Methylene-ATP); format: cell membranes, Oryctolagus cuniculus, New Zealand albino, Urinary bladder, Membrane; conditions: Not Active = under 50% inhibition at 10 µM
[3] = target: Voltage-gated inwardly rectifying potassium channel KCNH2 (Homo sapiens, UniProt Q12809); conditions: hek293; also: in other assays of this panel Not Active means under 50% inhibition at 10 µM
Voltage-gated inwardly rectifying potassium channel KCNH2, sequence (Q12809 whole entry): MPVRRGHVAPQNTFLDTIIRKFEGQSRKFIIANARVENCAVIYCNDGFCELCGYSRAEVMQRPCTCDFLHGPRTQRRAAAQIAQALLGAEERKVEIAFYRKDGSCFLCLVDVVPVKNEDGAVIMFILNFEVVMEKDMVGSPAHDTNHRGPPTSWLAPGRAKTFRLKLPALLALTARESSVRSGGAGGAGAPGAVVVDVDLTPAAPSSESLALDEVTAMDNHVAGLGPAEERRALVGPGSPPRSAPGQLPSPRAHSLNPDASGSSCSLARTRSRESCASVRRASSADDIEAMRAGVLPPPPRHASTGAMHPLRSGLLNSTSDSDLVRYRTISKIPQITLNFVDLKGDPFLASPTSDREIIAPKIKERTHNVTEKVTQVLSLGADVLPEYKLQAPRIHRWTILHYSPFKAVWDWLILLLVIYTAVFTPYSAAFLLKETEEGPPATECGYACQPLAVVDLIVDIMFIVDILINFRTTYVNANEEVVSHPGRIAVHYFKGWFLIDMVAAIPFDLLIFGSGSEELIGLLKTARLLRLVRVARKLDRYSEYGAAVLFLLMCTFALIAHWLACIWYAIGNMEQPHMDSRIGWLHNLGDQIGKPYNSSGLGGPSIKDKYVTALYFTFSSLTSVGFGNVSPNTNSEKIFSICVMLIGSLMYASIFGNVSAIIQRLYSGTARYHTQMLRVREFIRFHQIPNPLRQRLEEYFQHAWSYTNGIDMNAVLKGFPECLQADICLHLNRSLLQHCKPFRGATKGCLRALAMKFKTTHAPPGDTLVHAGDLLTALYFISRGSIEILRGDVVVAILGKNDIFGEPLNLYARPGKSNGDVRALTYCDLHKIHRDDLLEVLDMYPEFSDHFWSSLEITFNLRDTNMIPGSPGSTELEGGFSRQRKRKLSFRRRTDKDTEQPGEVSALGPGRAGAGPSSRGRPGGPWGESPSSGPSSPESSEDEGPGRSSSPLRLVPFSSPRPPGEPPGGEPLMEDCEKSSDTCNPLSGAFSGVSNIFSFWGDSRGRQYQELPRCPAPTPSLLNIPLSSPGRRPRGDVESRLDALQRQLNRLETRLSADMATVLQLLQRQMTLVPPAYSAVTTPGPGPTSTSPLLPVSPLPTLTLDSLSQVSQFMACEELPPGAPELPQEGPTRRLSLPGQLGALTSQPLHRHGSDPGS

[4] = DRUGMATRIX: Interleukin IL-1 radioligand binding (ligand: [125I] interleukin 1beta); format: cell membranes, Membrane; conditions: nih3t3; Not Active = under 50% inhibition at 10 µM
[5] = target: T3, 5-hydroxytryptamine receptor 1A (Rattus norvegicus, UniProt P19327); format: cell membranes, CHO-K1, Membrane; also: in other assays of this panel Not Active means under 50% inhibition at 10 µM
T3 sequence (P19327 whole entry): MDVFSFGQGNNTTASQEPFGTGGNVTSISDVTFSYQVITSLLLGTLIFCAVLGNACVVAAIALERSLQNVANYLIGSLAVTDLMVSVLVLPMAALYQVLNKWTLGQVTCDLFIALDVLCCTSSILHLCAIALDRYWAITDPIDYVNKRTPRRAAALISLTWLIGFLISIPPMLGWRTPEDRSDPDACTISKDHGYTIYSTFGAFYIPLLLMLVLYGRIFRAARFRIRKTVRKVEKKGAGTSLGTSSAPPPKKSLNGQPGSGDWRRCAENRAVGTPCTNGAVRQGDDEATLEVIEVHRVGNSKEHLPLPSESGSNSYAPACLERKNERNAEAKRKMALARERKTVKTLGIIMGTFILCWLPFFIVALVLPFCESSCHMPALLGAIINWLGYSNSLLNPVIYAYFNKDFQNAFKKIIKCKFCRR

[6] = target: 5-hydroxytryptamine receptor 4 (Cavia porcellus, UniProt O70528); format: cell membranes, Dunkin-Hartley, Striatum, Membrane; also: in other assays of this panel Not Active means under 50% inhibition at 10 µM
5-hydroxytryptamine receptor 4, sequence (O70528 whole entry): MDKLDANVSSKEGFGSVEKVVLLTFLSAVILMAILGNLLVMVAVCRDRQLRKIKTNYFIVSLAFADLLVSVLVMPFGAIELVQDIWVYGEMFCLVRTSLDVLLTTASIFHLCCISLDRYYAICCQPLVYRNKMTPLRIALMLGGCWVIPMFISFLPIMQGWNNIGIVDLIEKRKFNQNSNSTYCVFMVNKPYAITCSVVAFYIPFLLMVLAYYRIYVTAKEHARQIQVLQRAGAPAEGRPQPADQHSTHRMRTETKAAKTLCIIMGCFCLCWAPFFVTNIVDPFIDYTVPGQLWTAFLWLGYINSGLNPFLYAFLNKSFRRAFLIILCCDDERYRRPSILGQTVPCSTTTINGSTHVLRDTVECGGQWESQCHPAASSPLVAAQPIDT

Cytochrome P450 2C19, sequence (P33261 whole entry): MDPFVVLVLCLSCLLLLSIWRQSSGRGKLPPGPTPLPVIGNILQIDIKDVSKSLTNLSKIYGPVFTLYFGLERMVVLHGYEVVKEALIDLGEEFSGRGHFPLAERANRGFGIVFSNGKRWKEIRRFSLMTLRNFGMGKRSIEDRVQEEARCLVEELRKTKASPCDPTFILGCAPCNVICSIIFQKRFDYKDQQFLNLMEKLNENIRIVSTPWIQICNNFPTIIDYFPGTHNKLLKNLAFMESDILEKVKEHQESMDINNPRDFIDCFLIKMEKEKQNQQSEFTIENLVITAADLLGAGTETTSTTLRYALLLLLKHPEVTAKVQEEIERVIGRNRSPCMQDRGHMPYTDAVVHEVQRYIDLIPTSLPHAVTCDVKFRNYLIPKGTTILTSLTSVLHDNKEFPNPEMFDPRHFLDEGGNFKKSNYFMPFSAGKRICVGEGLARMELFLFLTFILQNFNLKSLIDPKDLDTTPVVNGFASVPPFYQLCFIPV

Structure (SMILES) | IC50 (Cytochrome P450 2C19) | Ki (Cytochrome P450 2C19) | IC50 [1] | IC50 (Endothelin-1 receptor) | IC50 [2] | Ki [2] | IC50 [3] | Ki [3] | IC50 [4] | Ki [4] | IC50 ([5]; cho-k1) | IC50 [6] | IC50 ([5]; read-out: IC50) [nM] | Ki ([5]; read-out: Ki) [nM] | IC50 ([6]; read-out: IC50) [nM] | Ki ([6]; read-out: Ki) [nM]
CC[C@H]1OC(=O)[C@H](C)[C@@H](O[C@H]2C[C@@](C)(OC)[C@@H](O)[C@H](C)O2)[C@H](C)[C@@H](O[C@@H]2O[C@H](C)C[C@H](N(C)C)[C@H]2O)[C@](C)(OC)C[C@@H](C)C(=O)[C@H](C)[C@@H](O)[C@]1(C)O [CLARITHROMYCIN] | Not Active | Not Active | Not Active | Not Active | Not Active | Not Active | Not Active | Not Active | Not Active | Not Active | Not Active | Not Active |  |  |  | 
O=C(O)c1cc(=O)c2c(OCC(O)COc3cccc4oc(C(=O)O)cc(=O)c34)cccc2o1 [CROMOLYN] | Not Active | Not Active | Not Active | Not Active | Not Active | Not Active | Not Active | Not Active | Not Active | Not Active | Not Active | Not Active |  |  |  | 
O=P1(N(CCCl)CCCl)NCCCO1 (stereo not drawn) [CYCLOPHOSPHAMIDE ANHYDROUS] | Not Active | Not Active | Not Active | Not Active | Not Active | Not Active | Not Active | Not Active | Not Active | Not Active | Not Active | Not Active |  |  |  | 
CC(=O)O[C@]1(C(C)=O)CC[C@H]2[C@@H]3C=C(Cl)C4=CC(=O)[C@@H]5C[C@@H]5[C@]4(C)[C@H]3CC[C@@]21C [CYPROTERONE ACETATE] | Not Active | Not Active | Not Active | Not Active | Not Active | Not Active | Not Active | Not Active | Not Active | Not Active | Not Active | Not Active |  |  |  | 
Nc1nc(N)nc(NC2CC2)n1 [CYROMAZINE] | Not Active | Not Active | Not Active | Not Active | Not Active | Not Active | Not Active | Not Active | Not Active | Not Active | Not Active | Not Active |  |  |  | 
C#C[C@]1(O)CC[C@H]2[C@@H]3CCC4=Cc5oncc5C[C@]4(C)[C@H]3CC[C@@]21C [DANAZOL] | Not Active | Not Active | Not Active | Not Active | Not Active | Not Active | Not Active | Not Active | Not Active | Not Active | Not Active | Not Active |  |  |  | 
CCN[C@@H](C)Cc1cccc(C(F)(F)F)c1 [DEXFENFLURAMINE] | Not Active | Not Active | Not Active | Not Active | Not Active | Not Active | Not Active | Not Active | Not Active | Not Active |  | Not Active | 3400 | 1940 |  | 
C[C@H](C(=O)O)c1cccc(C(=O)c2ccccc2)c1 [DEXKETOPROFEN] | Not Active | Not Active | Not Active | Not Active | Not Active | Not Active | Not Active | Not Active | Not Active | Not Active | Not Active | Not Active |  |  |  | 
Cc1c(N(C)CS(=O)(=O)[O-])c(=O)n(-c2ccccc2)n1C.[Na+] [DIPYRONE SODIUM] | Not Active | Not Active | Not Active | Not Active | Not Active | Not Active | Not Active | Not Active | Not Active | Not Active | Not Active | Not Active |  |  |  | 
CC(CCc1ccc(O)cc1)NCCc1ccc(O)c(O)c1 (stereo not drawn) [DOBUTAMINE] | Not Active | Not Active | Not Active | Not Active | Not Active | Not Active | Not Active | Not Active | Not Active | Not Active | Not Active | Not Active |  |  |  | 
CCn1cc(C(=O)O)c(=O)c2cc(F)c(N3CCNCC3)nc21 [ENOXACIN] | Not Active | Not Active | Not Active | Not Active | Not Active | Not Active | Not Active | Not Active | Not Active | Not Active | Not Active | Not Active |  |  |  | 
CCC(=O)O[C@H]1[C@H](O[C@@H]2[C@@H](C)[C@H](O[C@H]3C[C@@](C)(OC)[C@@H](O)[C@H](C)O3)[C@@H](C)C(=O)O[C@H](CC)[C@@](C)(O)[C@H](O)[C@@H](C)C(=O)[C@H](C)C[C@@]2(C)O)O[C@H](C)C[C@@H]1N(C)C [ERYTHROMYCIN PROPIONATE] | Not Active | Not Active | Not Active | Not Active | Not Active | Not Active | Not Active | Not Active | Not Active | Not Active | Not Active | Not Active |  |  |  | 
C=C(CC)C(=O)c1ccc(OCC(=O)O)c(Cl)c1Cl [ETHACRYNIC ACID] | Not Active | Not Active | Not Active | Not Active | Not Active | Not Active | Not Active | Not Active | Not Active | Not Active | Not Active | Not Active |  |  |  | 
C#C[C@]1(O)CC[C@H]2[C@@H]3CCc4cc(O)ccc4[C@H]3CC[C@@]21C [ETHINYL ESTRADIOL] | Not Active | Not Active | Not Active | Not Active | Not Active | Not Active | Not Active | Not Active | Not Active | Not Active | Not Active |  |  |  | 7950 | 1330
OCCO [ETHYLENE GLYCOL] | Not Active | Not Active | Not Active | Not Active | Not Active | Not Active | Not Active | Not Active | Not Active | Not Active | Not Active | Not Active |  |  |  | 
CC(=O)OCC(CCn1cnc2cnc(N)nc21)COC(C)=O [FAMCICLOVIR] | Not Active | Not Active | Not Active | Not Active | Not Active | Not Active | Not Active | Not Active | Not Active | Not Active | Not Active | Not Active |  |  |  | 
CC(C(=O)O)c1ccc(-c2ccccc2)c(F)c1 (stereo not drawn) [FLURBIPROFEN] | Not Active | Not Active | Not Active | Not Active | Not Active | Not Active | Not Active | Not Active | Not Active | Not Active | Not Active | Not Active |  |  |  | 
NC[C@@H]1O[C@H](O[C@H]2[C@@H](O)[C@H](O[C@@H]3[C@@H](O)[C@H](N)C[C@H](N)[C@H]3O[C@H]3O[C@H](CN)[C@@H](O)[C@H](O)[C@H]3N)O[C@@H]2CO)[C@H](N)[C@@H](O)[C@@H]1O [FRAMYCETIN] | Not Active | Not Active | Not Active | Not Active | Not Active | Not Active | Not Active | Not Active | Not Active | Not Active | Not Active | Not Active |  |  |  | 
